Laboratory results published in patent US20190218479A1, “Stabilized Liquid Peroxide Compositions” (Novozymes A/S, priority 2016, published 2019).

B1: Subtilisin2: subtilisin with amino acid sequence SEQ ID NO: 1, reference subtilisin not covered by the invention (protein, listed as Bacillus lentus)
chain: AQSVPWGISRVQAPAAHNRGLTGSGVKVAVLDTGISTHPDLNIRGGASFVPGEPSTQDGNGHGTHVAGTIAALNNSIGVLGVAPSAELYAVKVLGASGSGSVSSIAQGLEWAGNNGMHVANLSLGSPSPSATLEQAVNSATSRGVLVVAASGNSGAGSISYPARYANAMAVGATDQNNNRASFSQYGAGLDIVAPGVNVQSTYPGSTYASLNGTSMATPHVAGAAALVKQKNPSWSNVQIRNHLKNTATSLGSTNLYGSGLVNAEAATR

How the values were obtained:
Type in all cases: physicochemical
[1] = molecular target: T1, Subtilisin1 (Lederbergia lenta, UniProt P29600, M216S); assay: Residual activity of Subtilisin1 after storage in peroxide model detergents with or without subtilisin stabilizers (N,N-dimethylcasein/TNBS)
T1 sequence (P29600 whole entry M216S): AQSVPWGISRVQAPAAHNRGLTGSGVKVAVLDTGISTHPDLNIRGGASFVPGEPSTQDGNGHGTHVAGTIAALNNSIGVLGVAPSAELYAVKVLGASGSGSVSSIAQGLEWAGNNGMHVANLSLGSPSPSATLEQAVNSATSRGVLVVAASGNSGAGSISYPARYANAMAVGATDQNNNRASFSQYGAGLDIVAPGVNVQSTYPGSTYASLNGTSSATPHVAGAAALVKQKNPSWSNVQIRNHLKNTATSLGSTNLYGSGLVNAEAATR

[2] = molecular target: T1, Subtilisin1; assay: as above; details: model detergents with hydrogen peroxide, pH 7 and 9; summary of Example 2
Description: Chemicals used as buffers and substrates were commercial products of at least reagent grade. Subtilisin1 has the amino acid sequence as shown in SEQ ID NO: 2, which is a subtilisin having a M216 substitution according to the invention. Subtilisin2 has the amino acid sequence as shown in SEQ ID NO: 1, which is a reference subtilisin not covered by the invention. The stock solution of each subtilisin contains 4.4% w/w of active enzyme protein. Stabilizer1: Cbz-Gly-Ala-Tyr-H (C-terminal aldehyde), wherein Cbz is benzyloxycarbonyl; which is a subtilisin stabilizer according to the invention. When used in the examples below, Stabilizer1 was added to the subtilisin stock solution at a concentration of 0.28% w/w. Stabilizer2: Cbz-Gly-Ala-NHCH(CH2C6H4pOH)CH(OH)(OSO3)Na (hydrosulfite adduct of a C-terminal aldehyde) wherein Cbz is benzyloxycarbonyl; which is a subtilisin stabilizer according to the invention. When used in the examples below, Stabilizer2 was added to the subtilisin stock solution at a concentration of 0.35% w/w. Stabilizer3: MeOCO-Val-Ala-Leu-H (C-terminal aldehyde). When used in the examples below, Stabilizer3 was added to the subtilisin stock solution at a concentration of 0.28% w/w. Stabilizer4: 4-formyl-phenyl-boronic acid (4-FPBA); which is a reference protease stabilizer not covered by the invention. When used in the examples below, Stabilizer4 was added to the subtilisin stock solution at a concentration of 3.4% w/w.
(§1) The compositions were prepared as shown in the examples and samples stored in closed vials for storage. Residual activity was measured by comparing activity in a stored sample at the time of taken out of incubation without freezing and comparing activity to a freshly prepared sample without peroxide and dividing activity in the stored sample with activity in the fresh sample.
(§2) Activity analysis is performed by analysing protease activity by hydrolysis of N,N-dimethylcasein to produce a carboxylic acid and a primary amine compounds. The primary amines that are formed react, under alkaline conditions, with tri-nitrobenzenesulfonic acid (TNBS) to form a colored complex. The amount of colored complex that forms over the fixed reaction period at a constant temperature (530 seconds at 40° C.; complex absorbance is measured at 405 nm) is related to the amount of active protease present in the sample. The amount of colored product complex produced is compared to a standard curve based on known protease concentrations to calculate the amount of active protease in the detergent sample. The amount of protease activity at a specific time point is compared to the t=0 activity level to calculate the % active protease remaining.
This study examined Subtilisin1 stability in the presence of hydrogen peroxide, with and without subtilisin stabilizers (Stabilizer4 and Stabilizer2) in two different model detergents at pH 7 and 9.

[3] = Residual hydrogen peroxide after storage, permanganate titration; details: liquid peroxide composition in Table 1, 37° C., 4 weeks
Protocol: Residual hydrogen peroxide (H2O2) was measured by permanganate titration (reduction of potassium permanganate by hydrogen peroxide in sulfuric acid).

[4] = Stability of Subtilisin1 and Subtilisin2 in the liquid peroxide composition of Table 1 (residual protease activity, N,N-dimethylcasein/TNBS); details: liquid peroxide composition in Table 1 (0.8% H2O2, pH 7.0), 4 weeks
Protocol: as §1, §2

[5] = Subtilisin1 in “Mix Laundry” (Table 19, pH 7.5) no H2O2, no sodium salicylate, no polyDADMAC
[6] = Subtilisin1 in “Mix Laundry” (Table 19, pH 7.5) with 1% H2O2, with sodium salicylate, with polyDADMAC
[7] = Subtilisin1 in “NI pretreat” (Table 19, pH 7.0) with 1% H2O2, with sodium salicylate, with polyDADMAC
[8] = Subtilisin1 in “NI pretreat” (Table 19, pH 7.0) without H2O2, no sodium salicylate, no polyDADMAC

| Molecule | Residual activity after storage for 2 weeks at 30° C. [1, 5] [%] | Residual activity after storage for 2 weeks at 30° C. [1, 6] [%] | Residual activity after storage for 2 weeks at 37° C. [1, 7] [%] | Residual activity after storage for 2 weeks at 37° C. [1, 8] [%] | stabilization of Subtilisin1, compared to Stabilizer4 [2] | Residual H2O2 after 4 weeks [3] [%] | % Subtilisin residual activity after 4 weeks ([4]; 22° C.) [%] | % Subtilisin residual activity after 4 weeks ([4]; 30° C.) [%] | % Subtilisin residual activity after 4 weeks ([4]; 37° C.) [%] |
| --- | --- | --- | --- | --- | --- | --- | --- | --- | --- |
| O=Cc1ccc(B(O)O)cc1 [Stabilizer4, 4-formyl-phenyl-boronic acid, reference compound] | 86 | 20 | 11 | 129 |  |  |  |  |  |
| O=BOB(O)OB(O)OB=O [borax, reference compound] | 81 | 43 | 22 | 117 |  |  |  |  |  |
| Cbz-Gly-Ala-NHCH(CH2C6H4pOH)CH(OH)(OSO3)Na [Stabilizer2] | 83 | 52 | 61 | 98 | much more effective stabilization |  |  |  |  |
| MeOCO-Val-Ala-Leu-H [Stabilizer3] | 83 | 60 | 64 | 95 |  |  |  |  |  |
| B1 |  |  |  |  |  | 95.8 | 35 | 33 | 15 |
